Reference: article PMC5427923, “A novel CCR2 antagonist inhibits atherogenesis in apoE deficient mice by achieving high receptor occupancy” (Scientific Reports, 2017)

Tests used:
murine CCR2 (mCCR2) = target: T1, murine CCR2 (mCCR2) (Mus musculus, UniProt P51683); test: [3H]INCB3344 displacement assay on CHO-mCCR2 membranes; format: binding; details: displacement of 5 nM [3H]INCB3344, CHO-mCCR2 membranes, 25 °C
T1 construct: expressed in transfected cells; host or cells: CHO cells, transient transfection (PEI) with pcDNA3.1+ plasmid; membrane preparation
Protocol: Radioligand binding assays were performed in a 100 µL reaction volume containing 50 mM Tris-HCl buffer (pH 7.4), 5 mM MgCl2, 0.1% 3-[(3-cholamidopropyl)-dimethylammonio]-1-propanesulfonic acid (CHAPS), 5 nM [^3H]INCB3344 and 50 to 60 µg of membrane protein at 25 °C. Non-specific binding was determined with 10 μM of the cold ligand INCB3344. Displacement assays were carried out using 9 concentrations of competing ligand, ranging from 0.1 nM to 100 μM, for 120 min of incubation. The kinetic parameters of 15a were also determined at 25 °C using a competition association assay as previously described, [27]. […] Filter-bound radioactivity was determined by scintillation spectrometry after addition of Microscint scintillation cocktail (Perkin-Elmer, Groningen, the Netherlands). […]
All radioligand binding assays were analyzed using Prism 6.0 (GraphPad software, San Diego, CA, USA). […] Ki values were calculated from IC50 values obtained by non-linear regression analysis of the displacement assays and by using the Cheng-Prusoff equation[47]. Dissociation rate constants k off were determined by fitting the dissociation data using an exponential decay model. […] The kinetic profile of compound 15a was determined by calculation of its kinetic rate index (KRI) value. […] In addition, the RT was calculated by obtaining the reciprocal of the k off. Data obtained from in vivo experiments are expressed as mean ± SEM. […]

apoE−/− mice = test: Atherosclerotic lesion development in Western-type diet fed apoE−/− mice (carotid collar, aortic root); format: in vivo, mouse
From the text: Male apoE^−/− mice (10–12 weeks old), obtained from the local animal breeding facility (Gorlaeus Laboratories, Leiden, The Netherlands), were fed a Western type diet, containing 0.25% cholesterol and 15% cocoabutter (SDS, Sussex, UK).
To determine the effect of the CCR2 antagonist on atherosclerotic lesion development, mice were fed a Western type diet, containing 0.25% cholesterol and 15% cocoabutter (SDS, Sussex, UK) throughout the experiment starting two week before surgery. Carotid artery plaque formation was induced by perivascular collar placement as described previously[46] and from the time of surgery, the mice received daily intraperitoneal injections containing 15a (5 mg/kg/day) or vehicle control (n = 9–10 per group). During the experiment, total body weight and weight gain were measured. Serum total cholesterol levels were determined using an enzymatic colorimetric assay according to manufacturer’s protocol (Roche Diagnostics). Precipath (standardized serum; Boehringer Mannheim, Germany) was used as an internal standard. Plasma cytokine levels were measured by ELISA according to manufacturer’s protocol (BD Biosciences). Blood was collected weekly via tail cut. Total cell count and cellular differentiation patterns in blood were analyzed using an automated XT-2000iV veterinary hematology analyzer (Sysmex Europe GMBH, Norderstedt, Germany). After erythrocyte lysis, blood leukocyte suspensions were stained for surface markers, after which their expression was determined by FACS analysis (FACS Canto, BD Biosciences). After 4 weeks of lesion development, the animals were anaesthetized and blood was collected. After in situ perfusion through the left cardiac chamber, the carotid arteries and hearts were harvested.
Carotid artery cryosections of 5 µm thick were prepared, which were stained with hematoxylin-eosin to determine plaque size and necrotic core size. Morphometric analysis was performed on sections throughout the atherosclerotic lesion (100 µm apart) and at the site of maximal stenosis using Leica Qwin image analysis software. The relative necrotic area was defined as the a-cellular, debris-rich plaque area as percentage of total plaque area, and also quantified using Leica QWin software.
The hearts were dissected just below the atria and sectioned perpendicular to the axis of the aorta, starting within the heart and working in the direction of the aortic arch. Once the aortic root was identified by the appearance of aortic valve leaflets, 10 µm sections were collected. Mean lesion area (in µm^2) of the aortic root was calculated from six Oil-Red-O stained sections in distal direction starting at the point where all three aortic valve leaflets first appeared.
Macrophage content of the lesions in carotid arteries and aortic roots was stained using a rat monoclonal MOMA2 antibody (1:1000, Serotec, Kidlington, Oxford, UK). Macrophage positive areas were analyzed using computer-assisted colour-gated analysis, and related to the total intimal surface area (Leica QWin). Liver cryosections of 10 µm thick were prepared and subsequently stained with hematoxylin-eosin to analyze liver morphology, which was assessed using a Leica DMRE microscope (Leica Ltd., Cambridge, England).

T1 sequence (P51683 whole entry): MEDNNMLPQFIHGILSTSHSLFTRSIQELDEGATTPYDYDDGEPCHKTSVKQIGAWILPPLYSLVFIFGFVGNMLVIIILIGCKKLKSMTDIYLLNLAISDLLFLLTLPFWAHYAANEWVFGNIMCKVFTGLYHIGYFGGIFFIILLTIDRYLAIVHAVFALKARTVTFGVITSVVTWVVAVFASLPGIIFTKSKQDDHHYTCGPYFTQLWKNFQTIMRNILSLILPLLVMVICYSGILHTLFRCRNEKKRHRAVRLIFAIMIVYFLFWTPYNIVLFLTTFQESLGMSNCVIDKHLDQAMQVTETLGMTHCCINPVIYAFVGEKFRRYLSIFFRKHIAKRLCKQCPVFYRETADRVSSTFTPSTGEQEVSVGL

CC(C)[C@]1(C(=O)N2CCc3ccc(C(F)(F)F)cc3C2)CC[C@@H](N[C@@H]2CCc3cc(Br)ccc32)C1 [15a, ((1S,3R)-3-(((R)-5-bromo-2,3-dihydro-1H-inden-1-yl)amino)-1-isopropylcyclopentyl)(7-(trifluoromethyl)-3,4-dihydroisoquinolin-2(1H)-yl)methanone]
Ki (murine CCR2 (mCCR2)): 10.6 nM
atherosclerotic plaque size in the carotid artery at the site of maximal stenosis (apoE−/− mice; 5 mg/kg/day i.p., 4 weeks, controls 64.4 ± 11.8): 17.6 ± 4.1 *10^3 µm^2
relative necrotic area (apoE−/− mice; carotid artery plaques, controls 35.3 ± 8.2%): 7.6 ± 4.5%
plaque volume throughout the carotid arteries (apoE−/− mice; controls 1.75 ± 0.33): 0.46 ± 0.13 *10^7 µm^3
aortic root plaque volume (apoE−/− mice; controls 11.8 ± 1.2): 7.4 ± 0.7 *10^7 µm^3
macrophage positive area of the carotid artery plaques (MOMA2) (apoE−/− mice; controls 22.3 ± 4.1): 6.2 ± 2.5 *10^3 µm^2
relative macrophage content (corrected for lesion size), carotid artery (apoE−/− mice; controls 46 ± 4%): 25 ± 8%
macrophage positive area, aortic root (apoE−/− mice; controls 92.0 ± 15.6): 37.2 ± 8.7 *10^3 µm^2
aortic root average plaque size (apoE−/− mice; controls 215.9 ± 24.6): 157.0 ± 15.7 *10^3 µm^2
reduction in carotid artery lesion size (apoE−/− mice; mouse, in vivo): more than 70%
change in carotid artery plaque size versus control (apoE−/− mice; site of maximal stenosis): −73%
